For eleven compounds, TGI and GI50 results are on record in PubChem BioAssay (NCI).

Among the test systems are 786-0 renal; COLO 205 colon; DU-145 prostate; HCT-116 colon; LOX IMVI melanoma; MDA-MB-231 breast; OVCAR-4 ovarian; PC-3 prostate; SF-539 CNS; SK-MEL-2 melanoma.
Holding throughout (assay): NCI anticancer screen, dose series, 48 h

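Exposure lasted 48 hours, with cells grown in 96-well plates and compounds tested at five concentrations. At the GI50, growth is halved. The concentration for full growth arrest is given as TGI.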

Take `COC(=O)[C@]1(C)CCCn2c(=O)n(-c3ccccc3)c(=O)n21`: the TGI with 786-0 renal, in the test with COLO 205 colon, in the test on DU-145 prostate, with HCT-116 colon, in the test with LOX IMVI melanoma and in the test with MDA-MB-231 breast was above 100 µM in each case. In addition, the TGI with OVCAR-4 ovarian, in the test with PC-3 prostate, with SF-539 CNS and with SK-MEL-2 melanoma was above 100 µM each time.

Regarding `Cc1ncc([N+](=O)[O-])n1CCN(C)CCCCn1ccnc1[N+](=O)[O-]`, the TGI in the test with 786-0 renal, with COLO 205 colon, in the test on DU-145 prostate, in the test on HCT-116 colon, in the test with LOX IMVI melanoma and in the test with MDA-MB-231 breast was above 100 µM each time. The TGI in the test on OVCAR-4 ovarian, with PC-3 prostate, with SF-539 CNS and in the test on SK-MEL-2 melanoma was above 100 µM throughout.

As to `O=C(NCc1cn(Cc2cccc(Oc3ccccc3)c2)nn1)c1cccnc1Nc1ccccc1`, the GI50 with COLO 205 colon was 2.79 µM; in the test with DU-145 prostate it was 3.94 µM; in the test on HCT-116 colon, 3.4 µM; in the test on LOX IMVI melanoma, 4.54 µM; in the test on MDA-MB-231 breast, 2.25 µM; in the test on OVCAR-4 ovarian, 5.42 µM. In addition, the figures for the GI50 in the test with PC-3 prostate, with SF-539 CNS and with SK-MEL-2 melanoma were 3.27 µM, 3.1 µM and 6.05 µM, respectively. For the same compound, the TGI with COLO 205 colon is 5.75 µM; in the test with DU-145 prostate, 33.8 µM; in the test with HCT-116 colon, 23.5 µM; in the test with LOX IMVI melanoma, above 100 µM; with MDA-MB-231 breast, 5.97 µM; in the test on OVCAR-4 ovarian, above 100 µM. Besides, the TGI was above 100 µM with PC-3 prostate, 8.6 µM in the test on SF-539 CNS and 75.1 µM in the test with SK-MEL-2 melanoma.

For the compound `O=C(C=P(c1ccccc1)(c1ccccc1)c1ccccc1)C12CC3CC(CC(C3)C1)C2`, the TGI was found to be 33.4 µM with 786-0 renal; 28.7 µM with COLO 205 colon; 39.3 µM in the test on DU-145 prostate; 29.4 µM with HCT-116 colon; 41.5 µM in the test with LOX IMVI melanoma; 32.9 µM with MDA-MB-231 breast. Moreover, the TGI came out at 52.9 µM in the test with OVCAR-4 ovarian, 24 µM with PC-3 prostate, 37 µM in the test with SF-539 CNS and 29.5 µM with SK-MEL-2 melanoma.

Consider `CN(C)CC1CCC/C(=C\c2ccc(N(C)C)cc2)C1=O` (stereo not drawn), for which the TGI with 786-0 renal was determined as 10.8 µM; in the test on COLO 205 colon, 6.65 µM; in the test with DU-145 prostate, 34 µM; in the test with HCT-116 colon, 10.1 µM; in the test on LOX IMVI melanoma, 3.16 µM; with MDA-MB-231 breast, 15.7 µM. Moreover, the TGI in the test with OVCAR-4 ovarian amounted to 4.4 µM; in the test on PC-3 prostate, 32.2 µM; with SF-539 CNS it was 28.8 µM; in the test with SK-MEL-2 melanoma it was 22.3 µM.

Consider `Cc1cc(-c2ccc(C(=O)C(Cl)(Cl)Cl)[nH]2)on1`, for which the TGI was above 100 µM in the test on 786-0 renal; above 100 µM with COLO 205 colon; 39.6 µM in the test with DU-145 prostate; above 100 µM in the test on HCT-116 colon; above 100 µM in the test on LOX IMVI melanoma; 60.1 µM with MDA-MB-231 breast. The TGI was 70.1 µM in the test on OVCAR-4 ovarian, above 100 µM in the test on PC-3 prostate, 33 µM with SF-539 CNS and 66.7 µM in the test with SK-MEL-2 melanoma.

Turning to `CCOC(=O)c1nc2c3c(ncn2n1)Oc1c(c(-c2ccccc2)nn1-c1ccccc1)C3c1ccc(OC)c(OC)c1` (stereo not drawn), the TGI in the test with 786-0 renal, in the test with COLO 205 colon, in the test with DU-145 prostate, in the test with HCT-116 colon, in the test with LOX IMVI melanoma and with MDA-MB-231 breast was above 100 µM throughout. For the same compound, the TGI was 30.4 µM in the test on OVCAR-4 ovarian, above 100 µM in the test on PC-3 prostate, 26.8 µM in the test on SF-539 CNS and above 100 µM with SK-MEL-2 melanoma.

Regarding `N/C(CC/C(N)=N\O)=N\O`, the TGI in the test with 786-0 renal, in the test with DU-145 prostate, with HCT-116 colon, in the test on LOX IMVI melanoma, in the test on MDA-MB-231 breast and in the test on OVCAR-4 ovarian was above 100 µM each time. The TGI in the test with PC-3 prostate and with SK-MEL-2 melanoma was above 100 µM in each case.

`Oc1ccc(-c2cc(-c3c(O)cc(O)cc3O)on2)cc1`: the TGI in the test on 786-0 renal, with DU-145 prostate, in the test with HCT-116 colon, in the test on LOX IMVI melanoma, in the test on MDA-MB-231 breast and with OVCAR-4 ovarian was above 100 µM in each case. For the same compound, the TGI with PC-3 prostate, in the test with SF-539 CNS and with SK-MEL-2 melanoma was above 100 µM in each case.

As for `CCOC(=O)CC(C)C(C#N)(OP1(=O)OC(c2ccccc2)C(C)N1C)c1ccccc1` (stereo not drawn), the TGI in the test with 786-0 renal was above 100 µM; in the test on COLO 205 colon it was 36.6 µM; in the test with DU-145 prostate, above 100 µM; in the test on HCT-116 colon it was above 100 µM; with LOX IMVI melanoma, above 100 µM; in the test on MDA-MB-231 breast it was above 100 µM. Moreover, the TGI in the test on PC-3 prostate, with SF-539 CNS and in the test with SK-MEL-2 melanoma was above 100 µM in each case.

In the case of `CSc1nc2c(c(N(C)C)n1)C=Nn1c(nc3ccccc31)S2`, the TGI in the test on 786-0 renal, in the test with COLO 205 colon, in the test on DU-145 prostate, in the test with HCT-116 colon, in the test on LOX IMVI melanoma and in the test on MDA-MB-231 breast was above 100 µM each time. The TGI in the test on OVCAR-4 ovarian, in the test on PC-3 prostate and in the test on SK-MEL-2 melanoma was above 100 µM in each case.
